Assay results: patent US20160326142A1, “PYRAZOLE CARBOXAMIDE COMPOUNDS, COMPOSITIONS AND METHODS OF USE” (Genentech, Inc., priority 2012, published 2016)
pKi: −log10 of the molar value.

Target: T1, ITK (Homo sapiens, UniProt Q08881)
T1 construct: purchased Invitrogen PV3875
T1 sequence (Q08881 1-620): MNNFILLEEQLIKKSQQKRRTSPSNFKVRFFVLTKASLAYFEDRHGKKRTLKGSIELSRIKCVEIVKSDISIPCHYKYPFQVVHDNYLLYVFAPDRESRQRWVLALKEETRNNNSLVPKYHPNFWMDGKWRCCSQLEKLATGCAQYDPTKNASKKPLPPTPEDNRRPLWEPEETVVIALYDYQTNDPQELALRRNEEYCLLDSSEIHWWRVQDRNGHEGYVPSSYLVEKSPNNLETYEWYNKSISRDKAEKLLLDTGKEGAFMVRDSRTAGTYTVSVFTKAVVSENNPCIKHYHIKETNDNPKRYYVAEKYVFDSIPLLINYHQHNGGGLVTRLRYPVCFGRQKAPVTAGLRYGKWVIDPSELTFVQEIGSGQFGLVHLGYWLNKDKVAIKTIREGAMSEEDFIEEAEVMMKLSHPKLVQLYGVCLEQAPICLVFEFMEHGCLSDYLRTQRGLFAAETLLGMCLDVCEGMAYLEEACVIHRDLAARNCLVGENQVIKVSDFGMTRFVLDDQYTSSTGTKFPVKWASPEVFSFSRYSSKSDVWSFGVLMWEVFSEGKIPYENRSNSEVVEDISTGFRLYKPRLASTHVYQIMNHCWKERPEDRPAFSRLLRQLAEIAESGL
Experiment: ITK enzyme assay (Caliper or LCMS peptide phosphorylation)
Format: biochemical
Conditions: purified ITK (Invitrogen PV3875), 20 μM ATP, Ki by Morrison's quadratic equation
Procedure, shortened: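 Purified human ITK peptide phosphorylation, quenched with EDTA (50 mM final) for Caliper LabChip separation or TCA (5% v/v final) for UPLC-MS/MS MRM quantification. Ki derived via Morrison tight-binding equation, corrected for competitive inhibition using ATP concentration relative to Km,app.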

pKi	Compound
7.40	CN(C)CCC(c1ccccc1)n1cc(NC(=O)c2n[nH]c3c2CCC2(CCCO2)C3)cn1 (stereo not drawn) [Example 59, N-(1-(3-(dimethylamino)-1-phenylpropyl)-1H-pyrazol-4-yl)-1′,4,4′,5,5′,7′-hexahydro-3H-spiro[furan-2,6′-indazole]-3′-carboxamide]
8.70	CC12Cc3[nH]nc(C(=O)Nc4cnn(C(CCS(C)(=O)=O)c5ccccc5)c4)c3CC1C2 (stereo not drawn) [Example 69a, 5a-methyl-N-(1-(3-(methylsulfonyl)-1-phenylpropyl)-1H-pyrazol-4-yl)-1,4,4a,5,5a,6-hexahydrocyclopropa[f]indazole-3-carboxamide]
5.40	CC1(C)Cc2[nH]nc(C(=O)Nc3cnn(Cc4ccccc4)c3)c2CCO1 [Example 71a, N-(1-benzyl-1H-pyrazol-4-yl)-7,7-dimethyl-4,5,7,8-tetrahydro-1H-oxepino[4,5-c]pyrazole-3-carboxamide]
6.10	CC1(C)Cc2c(C(=O)Nc3cnn(Cc4ccccc4)c3)n[nH]c2CCO1 [Example 71b, N-(1-benzyl-1H-pyrazol-4-yl)-5,5-dimethyl-4,5,7,8-tetrahydro-1H-oxepino[4,5-c]pyrazole-3-carboxamide]
7.11	CN(C)CCn1cc(NC(=O)c2n[nH]c3c2CCC(C)(C)C3)cn1 [Example 72, N-(1-(2-(dimethylamino)ethyl)-1H-pyrazol-4-yl)-6,6-dimethyl-4,5,6,7-tetrahydro-1H-indazole-3-carboxamide]
9.52	CC1(C)CCc2c(C(=O)Nc3cnn(C(c4ccccc4)C4CN(CCF)C4)c3)n[nH]c2C1 (stereo not drawn) [Example 75b, N-(1-((1-(2-fluoroethyl)azetidin-3-yl)(phenyl)methyl)-1H-pyrazol-4-yl)-6,6-dimethyl-4,5,6,7-tetrahydro-1H-indazole-3-carboxamide]
7.21	O=C(Nc1cnn(Cc2ccccc2)c1)c1n[nH]c2c1CC1(COC1)C2 [Example 82, N-(1-benzyl-1H-pyrazol-4-yl)-4,6-dihydro-1H-spiro[cyclopenta[c]pyrazole-5,3′-oxetane]-3-c arboxamide]
8.10	CC1(C)CCc2c(C(=O)Nc3cnn(Cc4ccnc(N)c4)c3)n[nH]c2C1 [Example 111, N-(1-((2-aminopyridin-4-yl)methyl)-1H-pyrazol-4-yl)-6,6-dimethyl-4,5,6,7-tetrahydro-1H-indazole-3-carboxamide]
8.22	CC1(C)CCc2c(C(=O)Nc3cnn(Cc4cccnc4N)c3)n[nH]c2C1 [Example 112, N-(1-((2-aminopyridin-3-yl)methyl)-1H-pyrazol-4-yl)-6,6-dimethyl-4,5,6,7-tetrahydro-1H-indazole-3-carboxamide]
7.47	O=C(Nc1cnn(Cc2ccccc2)c1)c1n[nH]c2c1CCC1(CSC1)C2 [Example 118, N-(1-benzyl-1H-pyrazol-4-yl)-1,4,5,7-tetrahydrospiro[indazole-6,3′-thietane]-3-carboxamide]
8.40	CN(CCC(c1ccccc1)n1cc(NC(=O)c2n[nH]c3c2CCC(C)(C)C3)cn1)S(C)(=O)=O (stereo not drawn) [Example 122, 6,6-dimethyl-N-(1-(3-(N-methylmethylsulfonamido)-1-phenylpropyl)-1H-pyrazol-4-yl)-4,5,6,7-tetrahydro-1H-indazole-3-carboxamide]
5.40	CN1CCC2(CCc3c(C(=O)Nc4cnn(Cc5ccccc5)c4)n[nH]c3C2)C1=O (stereo not drawn) [Example 123b, N-(1-benzyl-1H-pyrazol-4-yl)-1′-methyl-2′-oxo-1,4,5,7-tetrahydrospiro[indazole-6,3′-pyrrolidine]-3-carboxamide]
6.85	O=C(Nc1cnn(Cc2ccccc2)c1)c1n[nH]c2c1CCCCC2 [Example 124, N-(1-benzyl-1H-pyrazol-4-yl)-1,4,5,6,7,8-hexahydrocyclohepta[c]pyrazole-3-carboxamide]
7.38	CC1(C)CCc2c(C(=O)Nc3cnn(C(c4ccccc4)C4CS(=O)(=O)CCN4)c3)n[nH]c2C1 (stereo not drawn) [Example 128a, N-(1-((1,1-dioxidothiomorpholin-3-yl)(phenyl)methyl)-1H-pyrazol-4-yl)-6,6-dimethyl-4,5,6,7-tetrahydro-1H-indazole-3-carboxamide]
> 10.00	CC12Cc3[nH]nc(C(=O)Nc4cnn(C(c5ccccc5)C5CCS(=O)(=O)CC5)c4)c3CC1C2(F)F (stereo not drawn) [Example 141, N-(1-((1,1-dioxidotetrahydro-2H-thiopyran-4-yl)(phenyl)methyl)-1H-pyrazol-4-yl)-5,5-difluoro-5a-methyl-1,4,4a,5,5a,6-hexahydrocyclopropa[f]indazole-3-carboxamide]
